Measured values: ChEMBL document CHEMBL1201862, “PubChem BioAssay data set” (2004)
Activity calls are given as the source filed them.

Key:
[1] = bead-based luminescence quenchers, dual-tagged ARNT – biochemical, AlphaScreen, cherry-pick, artefact control for ARNT-TACC3 interaction inhibitor project, dose response (AID 651705); format: functional;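 note: AlphaScreen bead proximity signal that flags compounds interfering with the detection technology; potency reflects signal decrease which marks the compound as an assay artifact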
[2] = target: DNA damage-inducible transcript 3 protein (Mus musculus, UniProt P35639); format: functional, Cricetulus griseus
Chain of DNA damage-inducible transcript 3 protein (P35639 whole entry): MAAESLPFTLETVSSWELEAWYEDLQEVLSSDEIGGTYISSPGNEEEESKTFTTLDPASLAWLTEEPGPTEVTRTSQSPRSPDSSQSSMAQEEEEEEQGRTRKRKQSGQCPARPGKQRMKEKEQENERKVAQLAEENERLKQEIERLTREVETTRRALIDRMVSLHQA

SUMO-activating enzyme [3] = target: T1, SUMO-activating enzyme (Homo sapiens, UniProt Q9UBT2); experiment: blockers of SAE1/SAE2–UBC9 SUMO transfer – biochemical, HTRF, uHTS, primary screen (AID 2006); format: protein-complex assay
T1 sequence (Q9UBE0 whole entry): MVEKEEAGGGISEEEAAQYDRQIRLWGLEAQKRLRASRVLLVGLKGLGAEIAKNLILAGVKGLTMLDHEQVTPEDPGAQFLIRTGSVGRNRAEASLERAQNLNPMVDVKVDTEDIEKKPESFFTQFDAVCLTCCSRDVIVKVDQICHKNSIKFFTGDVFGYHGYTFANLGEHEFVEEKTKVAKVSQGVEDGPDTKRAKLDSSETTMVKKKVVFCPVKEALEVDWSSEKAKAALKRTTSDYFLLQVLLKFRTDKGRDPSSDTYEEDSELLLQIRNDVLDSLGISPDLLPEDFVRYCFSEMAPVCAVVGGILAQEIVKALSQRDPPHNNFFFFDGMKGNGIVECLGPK
T1 sequence (Q9UBT2 whole entry): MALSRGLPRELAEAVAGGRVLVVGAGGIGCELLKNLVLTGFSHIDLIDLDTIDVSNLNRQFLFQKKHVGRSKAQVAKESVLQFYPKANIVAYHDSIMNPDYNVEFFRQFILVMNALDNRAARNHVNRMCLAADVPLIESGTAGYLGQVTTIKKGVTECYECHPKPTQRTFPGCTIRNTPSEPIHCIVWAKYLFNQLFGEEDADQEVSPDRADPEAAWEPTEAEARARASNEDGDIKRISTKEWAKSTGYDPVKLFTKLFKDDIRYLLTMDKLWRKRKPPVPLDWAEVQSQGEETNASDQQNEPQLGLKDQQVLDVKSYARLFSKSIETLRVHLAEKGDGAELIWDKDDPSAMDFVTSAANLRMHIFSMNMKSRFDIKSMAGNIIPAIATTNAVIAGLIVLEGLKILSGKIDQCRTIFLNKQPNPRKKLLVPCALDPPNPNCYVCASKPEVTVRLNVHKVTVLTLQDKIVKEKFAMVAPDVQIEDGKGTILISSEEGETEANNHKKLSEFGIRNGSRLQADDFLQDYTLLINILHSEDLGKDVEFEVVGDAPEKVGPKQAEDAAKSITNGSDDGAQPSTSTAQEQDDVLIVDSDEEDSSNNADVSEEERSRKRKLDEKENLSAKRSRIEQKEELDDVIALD

SUMO-activating enzyme [4] = target: T1, SUMO-activating enzyme; experiment: blockers of UBC9-mediated SUMO conjugation – biochemical, AlphaScreen, SUMOylation inhibitor project, confirmation (AID 2018); format: functional
INS1 = experiment: INS-1E survival protection against cytokine death – cell-based, luminescence, retest, dose response (AID 449756); format: functional; details: Rattus norvegicus;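 note: cell death triggered by IL-1 beta plus TNF-alpha plus IFN-gamma mixture; protective hits raise ATP signal compared with cytokine alone wells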
[5] = viability of HCT116 lacking mutant beta-catenin – cell-based, human colon tumor, dose response (AID 1045); format: functional;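 note: HCT116 colon tumor cells with beta catenin knocked out; cells exposed to compound for 60 hours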
[6] = viability of PTEN-deleted HCT116 cells – cell-based, HCT116 PTEN knockout, dose response (AID 1047); format: functional;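 note: HCT116 colon tumor cells with PTEN knocked out; cells exposed to compound for 60 hours before readout; potency for loss of cell viability measured by luminescence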
Melanocortin receptor 4 = Melanocortin receptor 4 (Homo sapiens, UniProt P32245); format: functional, cell-based;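 note: Cell-based assay with luminescence read-out, confirmatory dose-response testing for agonist activity of biased ligands at MC4R; human U2OS cells with tagged receptor and beta-arrestin; potency of agonists that increase receptor coupling to beta-arrestin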
Chain of Melanocortin receptor 4 (P32245 whole entry): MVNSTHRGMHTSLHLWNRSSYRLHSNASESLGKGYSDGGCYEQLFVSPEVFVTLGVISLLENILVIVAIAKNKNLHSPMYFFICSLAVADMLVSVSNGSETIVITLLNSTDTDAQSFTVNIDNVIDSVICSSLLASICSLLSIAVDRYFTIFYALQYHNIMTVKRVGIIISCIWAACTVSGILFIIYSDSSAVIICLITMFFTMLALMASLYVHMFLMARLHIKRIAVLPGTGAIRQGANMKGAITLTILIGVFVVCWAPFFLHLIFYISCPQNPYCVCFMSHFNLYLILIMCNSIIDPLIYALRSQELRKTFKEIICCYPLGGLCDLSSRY

[7] = target: Induced myeloid leukemia cell differentiation protein Mcl-1 (Homo sapiens, UniProt Q07820); format: functional
Chain of Induced myeloid leukemia cell differentiation protein Mcl-1 (Q07820 whole entry): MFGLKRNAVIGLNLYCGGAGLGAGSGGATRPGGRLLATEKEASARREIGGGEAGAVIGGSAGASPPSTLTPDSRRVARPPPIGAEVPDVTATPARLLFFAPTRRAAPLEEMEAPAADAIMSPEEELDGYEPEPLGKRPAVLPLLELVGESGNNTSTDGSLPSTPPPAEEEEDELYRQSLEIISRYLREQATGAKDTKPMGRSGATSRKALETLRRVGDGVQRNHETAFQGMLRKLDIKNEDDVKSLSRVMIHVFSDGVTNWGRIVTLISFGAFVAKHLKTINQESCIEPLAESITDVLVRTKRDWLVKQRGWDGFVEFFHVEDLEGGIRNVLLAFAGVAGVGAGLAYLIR

[8] = target: Potassium voltage-gated channel subfamily KQT member 2 (Rattus norvegicus, UniProt O88943); experiment: blockers of KCNQ2 channel current – cell-based, automated electrophysiology, set II, rat KCNQ2, dose response (AID 588637); format: functional
Chain of Potassium voltage-gated channel subfamily KQT member 2 (O88943 whole entry): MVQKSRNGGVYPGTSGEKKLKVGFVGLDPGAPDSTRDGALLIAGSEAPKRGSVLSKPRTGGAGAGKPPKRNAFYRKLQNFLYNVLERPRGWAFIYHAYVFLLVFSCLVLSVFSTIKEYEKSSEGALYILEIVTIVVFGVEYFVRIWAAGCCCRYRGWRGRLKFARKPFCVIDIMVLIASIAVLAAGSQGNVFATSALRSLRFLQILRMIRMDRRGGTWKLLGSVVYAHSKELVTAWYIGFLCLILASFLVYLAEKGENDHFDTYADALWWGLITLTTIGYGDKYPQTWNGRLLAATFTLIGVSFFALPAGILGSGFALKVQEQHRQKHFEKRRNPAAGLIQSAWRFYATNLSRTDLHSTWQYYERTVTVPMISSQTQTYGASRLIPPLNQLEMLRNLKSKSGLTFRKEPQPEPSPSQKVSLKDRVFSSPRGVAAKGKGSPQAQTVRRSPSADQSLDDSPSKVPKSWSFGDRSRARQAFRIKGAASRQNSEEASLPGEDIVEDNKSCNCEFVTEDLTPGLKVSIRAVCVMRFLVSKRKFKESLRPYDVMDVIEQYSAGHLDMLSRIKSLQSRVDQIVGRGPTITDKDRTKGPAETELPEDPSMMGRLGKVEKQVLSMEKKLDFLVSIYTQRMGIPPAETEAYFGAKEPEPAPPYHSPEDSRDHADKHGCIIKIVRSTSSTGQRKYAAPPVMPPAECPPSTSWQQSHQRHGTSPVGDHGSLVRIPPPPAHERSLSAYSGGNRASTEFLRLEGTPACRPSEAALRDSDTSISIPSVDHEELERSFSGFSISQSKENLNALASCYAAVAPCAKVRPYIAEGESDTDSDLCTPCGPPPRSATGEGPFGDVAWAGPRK

[9] = target: T2, Eukaryotic translation initiation factor 2-alpha kinase 3 (Homo sapiens, UniProt Q9NZJ5); experiment: Counterscreen assay for PERK inhibitors: Dose response cell-based high throughput screening assay to measure inhibition of PERK at 6 hours. [Related pubchem assays: 1522, 1416 ]; format: functional
T2 sequence (Q9NZJ5 whole entry): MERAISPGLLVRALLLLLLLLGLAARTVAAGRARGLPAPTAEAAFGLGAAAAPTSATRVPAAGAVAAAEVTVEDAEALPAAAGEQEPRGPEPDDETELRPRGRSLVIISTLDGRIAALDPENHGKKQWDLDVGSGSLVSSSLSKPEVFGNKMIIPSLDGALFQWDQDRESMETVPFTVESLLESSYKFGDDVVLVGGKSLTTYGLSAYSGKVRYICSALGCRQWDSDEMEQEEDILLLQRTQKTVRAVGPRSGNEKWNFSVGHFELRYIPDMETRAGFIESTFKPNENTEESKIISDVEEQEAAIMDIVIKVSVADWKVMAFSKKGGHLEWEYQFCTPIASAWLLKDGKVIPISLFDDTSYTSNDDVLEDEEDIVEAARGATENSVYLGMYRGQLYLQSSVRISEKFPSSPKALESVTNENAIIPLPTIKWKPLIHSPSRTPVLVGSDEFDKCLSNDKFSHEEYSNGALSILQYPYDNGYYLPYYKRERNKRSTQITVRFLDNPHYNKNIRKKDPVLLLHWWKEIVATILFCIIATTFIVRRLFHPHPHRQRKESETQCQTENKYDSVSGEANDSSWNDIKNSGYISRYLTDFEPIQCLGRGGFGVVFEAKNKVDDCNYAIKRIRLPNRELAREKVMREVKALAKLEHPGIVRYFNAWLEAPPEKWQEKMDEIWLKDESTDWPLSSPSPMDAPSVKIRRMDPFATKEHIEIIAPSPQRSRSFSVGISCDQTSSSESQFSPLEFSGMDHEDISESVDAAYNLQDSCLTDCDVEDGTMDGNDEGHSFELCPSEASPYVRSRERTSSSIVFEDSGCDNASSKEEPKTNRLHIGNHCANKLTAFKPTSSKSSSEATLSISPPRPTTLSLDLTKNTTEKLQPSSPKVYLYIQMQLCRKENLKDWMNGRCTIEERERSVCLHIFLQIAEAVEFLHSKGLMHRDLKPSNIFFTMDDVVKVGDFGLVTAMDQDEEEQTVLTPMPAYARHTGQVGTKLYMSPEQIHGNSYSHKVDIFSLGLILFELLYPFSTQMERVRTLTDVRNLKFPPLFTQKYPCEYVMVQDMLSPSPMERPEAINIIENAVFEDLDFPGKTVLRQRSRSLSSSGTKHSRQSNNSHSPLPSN

[10] = target: T2, Eukaryotic translation initiation factor 2-alpha kinase 3; experiment: Dose response cell-based high-throughput screening assay to measure PERK inhibition. [Related pubchem assays: 1416 ]; format: functional
[11] = target: T3, Apoptotic protease-activating factor 1 (Homo sapiens, UniProt O14727); experiment: SAR analysis of small molecule Activators of Apaf-1 in a Fluorescent assay.; format: functional; details: read-out: EC50_Mean;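 note: caspase-3 cleavage of fluorogenic Rh110 DEVD substrate downstream of apoptosome activation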
T3 sequence (O14727 whole entry): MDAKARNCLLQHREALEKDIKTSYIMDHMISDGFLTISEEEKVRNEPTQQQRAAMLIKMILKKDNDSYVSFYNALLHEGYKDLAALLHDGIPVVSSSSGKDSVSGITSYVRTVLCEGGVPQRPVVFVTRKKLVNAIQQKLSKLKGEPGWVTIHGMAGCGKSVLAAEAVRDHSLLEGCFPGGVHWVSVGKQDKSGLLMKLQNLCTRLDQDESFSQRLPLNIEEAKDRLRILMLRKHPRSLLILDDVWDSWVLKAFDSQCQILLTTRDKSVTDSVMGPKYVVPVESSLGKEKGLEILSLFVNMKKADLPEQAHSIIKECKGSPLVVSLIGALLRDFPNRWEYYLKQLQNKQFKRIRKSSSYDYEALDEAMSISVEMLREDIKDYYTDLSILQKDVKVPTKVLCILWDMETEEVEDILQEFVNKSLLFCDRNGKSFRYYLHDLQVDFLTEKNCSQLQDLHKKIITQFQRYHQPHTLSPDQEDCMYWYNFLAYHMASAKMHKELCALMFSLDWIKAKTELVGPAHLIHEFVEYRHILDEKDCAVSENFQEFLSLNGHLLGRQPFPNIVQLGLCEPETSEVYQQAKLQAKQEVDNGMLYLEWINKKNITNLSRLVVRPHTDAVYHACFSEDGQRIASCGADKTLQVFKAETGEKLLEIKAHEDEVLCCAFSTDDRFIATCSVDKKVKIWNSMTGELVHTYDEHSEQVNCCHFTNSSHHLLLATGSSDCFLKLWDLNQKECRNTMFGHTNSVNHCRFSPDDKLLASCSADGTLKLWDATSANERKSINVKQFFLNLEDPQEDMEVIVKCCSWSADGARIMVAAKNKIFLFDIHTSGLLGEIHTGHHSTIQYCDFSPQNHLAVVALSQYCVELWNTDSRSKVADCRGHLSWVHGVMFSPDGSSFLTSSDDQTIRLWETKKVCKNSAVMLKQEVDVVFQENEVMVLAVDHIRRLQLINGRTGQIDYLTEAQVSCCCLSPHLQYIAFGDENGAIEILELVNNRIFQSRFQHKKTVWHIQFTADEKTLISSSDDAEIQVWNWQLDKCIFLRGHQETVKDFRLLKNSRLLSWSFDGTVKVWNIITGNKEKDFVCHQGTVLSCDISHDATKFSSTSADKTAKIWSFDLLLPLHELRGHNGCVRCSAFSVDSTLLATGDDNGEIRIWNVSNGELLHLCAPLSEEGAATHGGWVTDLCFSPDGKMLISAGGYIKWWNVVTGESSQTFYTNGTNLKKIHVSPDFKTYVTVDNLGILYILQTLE

[12] = mammalian cell viability loss – Alamar Blue, dry powder, cytotoxicity control for antifungal single agent project, dose response (AID 602188); format: functional, cell-based
[13] = NIH3T3 cell viability loss – ATP luminescence, mouse fibroblasts, counter-screen, dose response (AID 2010); format: functional, cell-based;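 note: cells exposed to compound for about 90 hours before reading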
[14] = Trypanosoma cruzi growth suppression in host cells – NIH3T3 host cells, beta-gal luminescence, confirmation (AID 2044); format: functional, cell-based;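 note: intracellular parasites grown in NIH/3T3 mouse fibroblasts as host cells; luminescent beta-galactosidase reporter signal from transgenic T. cruzi replicating inside host cells; inhibitors lower the luminescence signal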
[15] = fluconazole-exposed Candida albicans growth modulators – fluorescence, retest, confirmation (AID 2467); format: functional, cell-based
HEK293 = experiment: EBV LMP1 TES2 canonical NF-kB signalling blockers – cell-based, HEK293, luciferase, cherry-pick, dose response (AID 588343); format: functional; details: Homo sapiens
[16] = target: ATP-dependent molecular chaperone HSP82 (Candida albicans (strain WO-1) (Yeast), UniProt C4YTQ8); experiment: steroid-induced GRE reporter decrease in yeast – S. cerevisiae, luminescence, Hsp90 inhibitor project, dose response (AID 2400); format: functional, cell-based;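 note: beta-galactosidase luminescence from glucocorticoid response element reporter as proxy for Hsp90 function; inhibitor potency where signal loss means Hsp90 inhibition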
Chain of ATP-dependent molecular chaperone HSP82 (C4YTQ8 whole entry): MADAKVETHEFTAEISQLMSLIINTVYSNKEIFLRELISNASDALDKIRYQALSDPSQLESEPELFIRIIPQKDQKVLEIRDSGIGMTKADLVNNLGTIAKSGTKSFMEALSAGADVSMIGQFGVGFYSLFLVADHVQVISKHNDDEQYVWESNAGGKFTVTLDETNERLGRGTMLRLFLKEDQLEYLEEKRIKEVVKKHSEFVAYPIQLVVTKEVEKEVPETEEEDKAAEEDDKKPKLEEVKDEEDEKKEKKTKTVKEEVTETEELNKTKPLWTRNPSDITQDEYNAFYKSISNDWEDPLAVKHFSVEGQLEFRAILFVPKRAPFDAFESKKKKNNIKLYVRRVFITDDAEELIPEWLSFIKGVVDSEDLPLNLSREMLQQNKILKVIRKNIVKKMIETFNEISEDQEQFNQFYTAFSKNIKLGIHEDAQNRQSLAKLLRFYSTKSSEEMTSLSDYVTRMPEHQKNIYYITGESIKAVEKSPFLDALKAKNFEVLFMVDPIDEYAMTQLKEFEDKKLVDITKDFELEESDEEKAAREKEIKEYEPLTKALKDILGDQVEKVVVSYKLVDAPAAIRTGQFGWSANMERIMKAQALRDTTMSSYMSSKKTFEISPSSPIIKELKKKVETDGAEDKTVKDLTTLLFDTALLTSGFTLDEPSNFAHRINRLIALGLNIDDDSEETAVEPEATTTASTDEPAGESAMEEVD

Streptococcus = experiment: GAS UMAA2166 growth inhibition – luminescence, BacTiterGlo, counter-screen for streptokinase expression inhibitor project, dose response (AID 1915); format: functional, organism-based;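 note: potency for reduction of bacterial viability or growth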
[17] = system: Streptococcus sp. 'group A'; experiment: Streptococcus pyogenes SK(-)GAS viability under kanamycin – luminescence, BacTiterGlo, confirmation, counter-screen for streptokinase expression inhibitor project, dose response (AID 1900); format: functional, organism-based
[18] = NIH-3T3 fibroblast cytotoxicity, dose response, cytotoxicity control, cell-based, fluorescence, Alamar Blue, secondary assay (AID 2327); format: functional;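 note: NIH-3T3 mouse fibroblasts cultured with fluconazole at 8 µg/mL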
[19] = target: T4, Serine/threonine-protein phosphatase (Candida dubliniensis (strain CD36 / CBS 7987 / NCPF 3949 / NRRLY-17841) (Yeast), UniProt B9W6M3); experiment: blockers of CaCl2-induced CDRE-lacZ signaling – S. cerevisiae, luminescence, secondary, dose response (AID 2388); format: functional, cell-based;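 note: yeast reporter cells carrying a calcineurin-responsive lacZ construct stimulated with calcium chloride; luminescent beta-galactosidase reporter signal in whole cells rather than isolated phosphatase activity; potency for inhibition where a drop in reporter signal means calcineurin blockade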
T4 sequence (B9W6M3 whole entry): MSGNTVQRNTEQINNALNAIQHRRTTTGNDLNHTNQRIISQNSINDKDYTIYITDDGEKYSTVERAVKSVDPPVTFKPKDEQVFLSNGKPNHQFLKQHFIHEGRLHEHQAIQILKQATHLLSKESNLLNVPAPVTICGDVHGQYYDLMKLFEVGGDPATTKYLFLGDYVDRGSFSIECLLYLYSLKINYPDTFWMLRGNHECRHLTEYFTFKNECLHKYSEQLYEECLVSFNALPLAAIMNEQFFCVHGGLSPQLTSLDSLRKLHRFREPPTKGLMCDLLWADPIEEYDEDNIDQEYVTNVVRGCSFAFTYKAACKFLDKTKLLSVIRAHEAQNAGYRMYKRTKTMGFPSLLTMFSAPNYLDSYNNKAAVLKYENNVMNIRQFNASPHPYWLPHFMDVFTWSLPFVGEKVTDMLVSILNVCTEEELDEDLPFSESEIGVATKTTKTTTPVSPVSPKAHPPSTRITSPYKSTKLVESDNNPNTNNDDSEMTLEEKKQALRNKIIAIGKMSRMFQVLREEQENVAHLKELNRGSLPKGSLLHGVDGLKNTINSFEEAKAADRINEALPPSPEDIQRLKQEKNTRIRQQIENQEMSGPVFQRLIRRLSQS

[20] = target: T5, Carboxy-terminal domain RNA polymerase II polypeptide A small phosphatase 1 (Homo sapiens, UniProt Q9GZU7); experiment: CTDSP1 inhibitors, concentration-response, biochemical, absorbance readout, ultra-high-throughput screen actives (AID 540297); format: functional
T5 sequence (Q9GZU7 whole entry): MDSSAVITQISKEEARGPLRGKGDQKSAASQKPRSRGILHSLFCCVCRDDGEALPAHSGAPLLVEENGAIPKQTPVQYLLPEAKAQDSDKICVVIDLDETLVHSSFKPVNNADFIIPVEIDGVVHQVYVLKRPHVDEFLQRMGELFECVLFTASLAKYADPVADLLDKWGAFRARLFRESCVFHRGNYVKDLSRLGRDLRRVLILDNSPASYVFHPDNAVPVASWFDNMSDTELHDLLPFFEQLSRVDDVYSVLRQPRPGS

[21] = target: Dual specificity protein phosphatase 3 (Homo sapiens, UniProt P51452); experiment: VHR phosphatase inhibition, dose response, selectivity assay for STEP inhibitor project, biochemical (AID 602374); format: functional; details: read-out: IC50_Mean
Chain of Dual specificity protein phosphatase 3 (P51452 whole entry): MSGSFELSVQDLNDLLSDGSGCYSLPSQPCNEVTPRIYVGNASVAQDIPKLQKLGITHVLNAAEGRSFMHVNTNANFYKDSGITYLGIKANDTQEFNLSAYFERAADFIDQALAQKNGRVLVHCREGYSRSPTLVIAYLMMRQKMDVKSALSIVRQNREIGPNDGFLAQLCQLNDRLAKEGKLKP

[22] = target: Tyrosine-protein phosphatase non-receptor type 11 (Homo sapiens, UniProt Q06124); experiment: PTPN11 enzyme inhibitors – biochemical, selectivity assay for STEP inhibitor project, dose response (AID 602367); format: functional; details: read-out: IC50_Mean
Chain of Tyrosine-protein phosphatase non-receptor type 11 (Q06124 whole entry): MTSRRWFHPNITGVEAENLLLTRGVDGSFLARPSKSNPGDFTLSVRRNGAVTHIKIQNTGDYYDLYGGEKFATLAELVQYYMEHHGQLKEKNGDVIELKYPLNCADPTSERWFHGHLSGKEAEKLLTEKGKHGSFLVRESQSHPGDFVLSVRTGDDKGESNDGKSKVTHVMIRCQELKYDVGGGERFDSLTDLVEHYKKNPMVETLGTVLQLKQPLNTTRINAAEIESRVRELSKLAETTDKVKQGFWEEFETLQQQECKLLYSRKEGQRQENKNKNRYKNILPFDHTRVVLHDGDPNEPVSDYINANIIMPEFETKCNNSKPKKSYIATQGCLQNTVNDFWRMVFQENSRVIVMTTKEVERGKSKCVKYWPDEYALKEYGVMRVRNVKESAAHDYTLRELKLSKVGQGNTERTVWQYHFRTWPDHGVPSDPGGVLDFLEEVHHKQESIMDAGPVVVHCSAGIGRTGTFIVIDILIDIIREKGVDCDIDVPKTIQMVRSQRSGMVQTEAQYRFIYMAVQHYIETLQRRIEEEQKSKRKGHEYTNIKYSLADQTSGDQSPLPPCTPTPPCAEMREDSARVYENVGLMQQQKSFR

[23] = target: Tyrosine-protein phosphatase non-receptor type 5 (Homo sapiens, UniProt P54829); experiment: PTPN5 enzyme inhibition – biochemical, fluorescence intensity, uHTS hits, confirmation (AID 602372); format: functional; details: read-out: IC50_Mean
Chain of Tyrosine-protein phosphatase non-receptor type 5 (P54829 whole entry): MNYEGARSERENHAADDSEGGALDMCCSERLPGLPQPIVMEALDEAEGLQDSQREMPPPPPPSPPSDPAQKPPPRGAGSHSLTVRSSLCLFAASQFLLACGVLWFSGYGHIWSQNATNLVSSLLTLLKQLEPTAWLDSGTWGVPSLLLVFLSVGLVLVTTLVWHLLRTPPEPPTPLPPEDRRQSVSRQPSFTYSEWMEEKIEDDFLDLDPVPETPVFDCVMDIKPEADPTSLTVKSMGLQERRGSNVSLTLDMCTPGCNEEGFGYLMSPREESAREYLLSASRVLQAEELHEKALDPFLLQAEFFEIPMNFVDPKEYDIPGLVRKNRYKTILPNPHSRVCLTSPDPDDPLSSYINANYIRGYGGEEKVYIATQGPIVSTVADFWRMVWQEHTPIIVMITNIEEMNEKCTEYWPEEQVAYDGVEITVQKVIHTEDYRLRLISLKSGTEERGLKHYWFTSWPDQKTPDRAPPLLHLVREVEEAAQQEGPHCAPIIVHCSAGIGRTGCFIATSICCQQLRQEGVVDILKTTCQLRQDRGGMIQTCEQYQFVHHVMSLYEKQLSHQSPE

O=C(O)c1ccccc1-c1ccccc1C(=O)Nc1ccc2c(c1)nc(O)c1ccccc12
AC50 [1]: 79.9 µM (active)

O=C(N=Nc1c(O)n(Cc2ccccc2)c2ccccc12)c1cc2ccccc2cc1O
Absolute IC50 (CHOP) [2]: 10 µM | IC50 (SUMO-activating enzyme [3]): 13.8 µM (active) | IC50 (SUMO-activating enzyme [4]): 12.3 µM (active) | AC50 (INS1): 7.06 µM (active) | EC50 [5]: 5.03 µM (active) | EC50 [6]: 4.96 µM (active) | EC50 (Melanocortin receptor 4): > 89.2 µM (inactive) | IC50 [7]: 5.39 µM (active)

Cc1ccccc1OCCn1cc(C(=O)C(=O)N2CCOCC2)c2ccccc21
IC50 [8]: 8.84 µM (active)

Cc1csc2c(=O)sc(NC(=O)c3ccc(F)cc3)nc12
EC50 [9]: > 55.7 µM (not active) | EC50 [10]: > 55.7 µM (not active) | EC50 [11]: > 100 µM (inactive)

COc1ccc(-c2nnc(NC(=O)c3ccc(S(=O)(=O)N4CCCc5ccccc54)cc3)o2)cc1
AC50 [12]: 2.71 µM (active) | EC50 [13]: 5.82 µM (active) | EC50 [14]: 0.795 µM (active) | EC50 [15]: 0.326 µM (active) | AC50 (HEK293): 3.47 µM (active) | EC50 [16]: > 150 µM (inactive) | EC50 (Streptococcus): 0.855 µM (active) | EC50 [17]: 0.186 µM (active) | EC50 [18]: 32.9 µM (inconclusive) | EC50 [19]: > 180 µM (inactive)

CCN(c1ccccc1)S(=O)(=O)c1cc(C(=O)OCC(=O)c2c(N)n(C)c(=O)n(C)c2=O)ccc1C
IC50 [20]: 3.71 µM (active) | IC50 [21]: 2.62 µM (active) | IC50 [22]: 1.13 µM (active) | IC50 [23]: 30.9 µM (inactive)
